Measured values reported in patent US20100266501A1, “METHODS AND COMPOSITIONS FOR ORGAN PROTECTION” (University Of Vermont and State Agricltural College, priority 2006, published 2010).
Where two headings read alike, the source gives them in different places.

Assays:
[1] = tested on: pig model of myocardial ischemia and reperfusion; assay: Ischemia-reperfusion model: area at risk and infarct size (Evans Blue / TTC staining); type: in vivo; details: for area at risk as a percentage of ventricular myocardium / infarct size as a percentage of the area at risk / infarct size as percent of ventricular myocardium (TTC staining): 60 min LAD occlusion, 24 h reperfusion, 200 ml contrast, NAC 11.3 mg/mL, n=5, mean±SD
From the text: Sedation, anesthesia and instrumentation of the pigs were accomplished in accordance to the dose escalation study. All pigs received a bolus of 2000 units of heparin sulfate after obtaining femoral artery access. A guide wire (PT2, 0.014″×185 cm, Boston Scientific, Natick, Mass.) was then advanced into the left anterior descending (LAD) coronary artery followed by inflation of a balloon (Monorail Maverick, 2.5×15 mm, Boston Scientific) in its mid-portion, just distal to the second diagonal branch. Total occlusion was confirmed by contrast injections after increasing balloon pressures in 1 atm increments. Total occlusion time was 60 minutes. Throughout the experiment, the animals were monitored by continuous digital ECG recordings and guide catheter pressure recordings. Digital cineangiograpic recordings were obtained in straight anterioposterior projections. A total of 200 ml of contrast medium was administered to each animal. Approximately half of the contrast volume was used during diagnostic angiography and insertion of the guidewire into the LAD. The remaining contrast was injected after deflation of the balloon during the reperfusion period. After 20-30 minutes of reperfusion, catheter, balloon and guide wire were withdrawn. An Angio-Seal 6-French femoral artery closure device (St. Jude Medical, St. Paul, Minn.) was deployed and the Isoflurane was discontinued. After 30 minutes the ECG recording was stopped and the animals were extubated and transferred to the animal housing facility. No animal was lost during the housing period. Twenty four hours later the animals were sedated and intubated. The thoracic cavity was opened by a midline sternotomy and ligatures were placed at the site of the proximal balloon occlusion, the aortic arch branches and the descending aorta. The right carotid artery was cannulated and a plastic catheter advanced into the aortic root. […] The vessels were occluded in the following order: LAD, aortic arch branches and descending aorta. The dye was then injected at a perfusion pressure of 120 mmHg until the myocardium was stained. […] In the NAC group two animals could not be used for the myocardial infarction analysis (insufficient Evans Blue staining, unsuccessful electrical cardioversion). Evans Blue stained hearts were harvested and the atria were removed. The ventricles were sliced into one centimeter slices in a bread loaf fashion, with the first slice at the apex. At least five slices could be obtained in all hearts. The basal surfaces of the slices were sequentially imaged. Small samples of myocardium from areas of necrosis, area at risk and normal left ventricular myocardium were obtained from the apical side of the second and third slice and stored for additional analyses. […] The basal surfaces were then re-imaged. Area analysis (planimetry) was performed with the NIH-Image program (Scion Image Version 4.0.2). The size of the area at risk and infarct size for each slice was determined by multiplying the mass of the slice by the fraction of area at risk or by the fraction of area of infarction. Total infarct size and the area at risk size were expressed as a percentage of biventricular mass to account for the anterior right ventricular infarction.

[2] = tested on: pig model of myocardial ischemia and reperfusion; assay: Ischemia-reperfusion model: infarct morphology (circumference/area index); type: in vivo; details: for morphologic appearance of the infarcted area: TTC stained sections
From the text: (§1) Sedation, anesthesia and instrumentation of the pigs were accomplished in accordance to the dose escalation study. All pigs received a bolus of 2000 units of heparin sulfate after obtaining femoral artery access. A guide wire (PT2, 0.014″×185 cm, Boston Scientific, Natick, Mass.) was then advanced into the left anterior descending (LAD) coronary artery followed by inflation of a balloon (Monorail Maverick, 2.5×15 mm, Boston Scientific) in its mid-portion, just distal to the second diagonal branch. Total occlusion was confirmed by contrast injections after increasing balloon pressures in 1 atm increments. Total occlusion time was 60 minutes. Throughout the experiment, the animals were monitored by continuous digital ECG recordings and guide catheter pressure recordings. Digital cineangiograpic recordings were obtained in straight anterioposterior projections. In order to quantify visual differences in infarct morphology, a circumference/area index of the infarcted myocardium using TTC stained sections was calculated.

myocyte nuclei = assay: Ischemia-reperfusion model: TUNEL assay for apoptosis in myocardium; type: in vivo, pig; details: for nuclei stained positive for apoptosis (TUNEL): infarct tissue; for nuclei stained positive for apoptosis (TUNEL) / nuclei stained TUNEL positive: mean±SD; for nuclei stained TUNEL positive: non-infarcted area at risk
From the text: Sedation, anesthesia and instrumentation of the pigs were accomplished in accordance to the dose escalation study. All pigs received a bolus of 2000 units of heparin sulfate after obtaining femoral artery access. A guide wire (PT2, 0.014″×185 cm, Boston Scientific, Natick, Mass.) was then advanced into the left anterior descending (LAD) coronary artery followed by inflation of a balloon (Monorail Maverick, 2.5×15 mm, Boston Scientific) in its mid-portion, just distal to the second diagonal branch. Total occlusion was confirmed by contrast injections after increasing balloon pressures in 1 atm increments. Total occlusion time was 60 minutes. Throughout the experiment, the animals were monitored by continuous digital ECG recordings and guide catheter pressure recordings. Digital cineangiograpic recordings were obtained in straight anterioposterior projections. TUNEL assays were performed on samples from […] area at risk and infarcted tissue to investigate if NAC reduces ischemia-reperfusion induced apoptosis. A total of four samples from two control animals and six samples from three NAC treated animals were analyzed. Tissue sections were deparaffinized and permeabilized with proteinase K (25 μg/ml in 100 mM Tris.HCl). An in situ apoptotic cell death detection kit (TMR red; Roche Applied Bio Sciences, Indianapolis, Ind.) based on the TUNEL assay was used to detect apoptotic cells. Sections were mounted with Vectashield mounting medium containing 4′,6-diamidino-2-phenylindole (DAPI; Vector Laboratories, Burlingame, Calif.) as a nuclear counterstain. Sections were examined with a Zeiss Axiovert 200 microscope and Zeiss LSM 510 META laser scanning confocal microscope. The percentage of apoptotic nuclei per section was calculated by counting the total number of TUNEL-staining nuclei divided by the total number of DAPI-positive nuclei in 10 randomly selected fields at ×40 magnification (14).

[3] = tested on: pig model of myocardial ischemia and reperfusion; assay: Ischemia-reperfusion model: periprocedural arrhythmias (VT, VF, DCCV); type: in vivo; details: 200 ml contrast, NAC 11.3 mg/mL
From the text: as §1, with “projections.” for “projections. In order to quantify visual differences in infarct morphology, a circumference/area index of the infarcted myocardium using TTC stained sections was calculated.”
Blood pressure, heart rate, and high-resolution ECG were continuously recorded beginning at the time of coronary occlusion and for 30 minutes following reperfusion. The occurrence of ventricular tachycardia during coronary occlusion or reperfusion (defined as more than 4 consecutive ventricular ectopic beats) and ventricular fibrillation were recorded. […] (DCCV) was provided for ventricular fibrillation and ventricular tachycardia with hemodynamic instability. No antiarrhythmic medications were used.

[4] = Ischemia-reperfusion model: serum creatinine; type: in vivo, pig; details: for baseline creatinine level / creatinine level: serum, mean±SD; for baseline creatinine level: prior to contrast medium administration; for creatinine level: twenty four hours after ischemia-reperfusion, 200 ml contrast
From the text: Sedation, anesthesia and instrumentation of the pigs were accomplished in accordance to the dose escalation study. All pigs received a bolus of 2000 units of heparin sulfate after obtaining femoral artery access. A guide wire (PT2, 0.014″×185 cm, Boston Scientific, Natick, Mass.) was then advanced into the left anterior descending (LAD) coronary artery followed by inflation of a balloon (Monorail Maverick, 2.5×15 mm, Boston Scientific) in its mid-portion, just distal to the second diagonal branch. Total occlusion was confirmed by contrast injections after increasing balloon pressures in 1 atm increments. […] Throughout the experiment, the animals were monitored by continuous digital ECG recordings and guide catheter pressure recordings. Digital cineangiograpic recordings were obtained in straight anterioposterior projections. A total of 200 ml of contrast medium was administered to each animal. Approximately half of the contrast volume was used during diagnostic angiography and insertion of the guidewire into the LAD. The remaining contrast was injected after deflation of the balloon during the reperfusion period. After 20-30 minutes of reperfusion, catheter, balloon and guide wire were withdrawn. An Angio-Seal 6-French femoral artery closure device (St. Jude Medical, St. Paul, Minn.) was deployed and the Isoflurane was discontinued. After 30 minutes the ECG recording was stopped and the animals were extubated and transferred to the animal housing facility. No animal was lost during the housing period. Serum was collected prior to contrast exposure and 24 hours after infarction and analyzed for creatinine. An attempt was also made to assay Cystatin C as a second renal marker. However, Cystatin C was undetectable in pig serum.

[5] = Intracoronary NAC dose escalation: ECG (QT interval, arrhythmias, heart rate)
Protocol: Accordingly, the effects of escalating doses of intracoronary NAC (Cumberland Pharmaceuticals, Nashville, Tenn.) mixed with contrast medium on blood pressure and cardiac rhythm were tested in two healthy farm raised pigs (23 and 26 kg).
The pigs were anesthetized with Isoflurane after intramuscular pre-medication with Ketamine (20 mg/kg). After endotracheal intubation they were ventilated (Harvard Apparatus, Holliston, Mass.) with a mixture of oxygen and 1-3 percent isoflurane. A surgical level of anesthesia was confirmed prior to obtaining percutaneous femoral arterial access using a 6-French sheath. A JR 4 or HS guide catheter was inserted and placed at the ostium of the left main coronary artery. Continuous twelve-lead ECG and catheter based pressures were digitally recorded with the administration of bolus injections of NAC. The initial dose was 56.6 mg of NAC diluted in 5 mL of. Iopamidol (Isovue 370®, Bracco Pharmaceuticals, Princeton, N.J.). This dose of 11.3 mg NAC/mL is referred to as the target dose because it would deliver a dose of 1850 milligrams of NAC to an average patient undergoing a percutaneous coronary intervention. […] Following at least five injections of the target dose, a total of four high dose injections were performed, two of 250 mg per 5 mL bolus and two of 500 mg NAC per 5 mL bolus (equal to 4.4× and 8.8× target dose). […] Blood pressure and QT interval were analyzed at the end of three succeeding respiratory cycles (6, 12 and 18 seconds after injection) and are reported as a mean percent change from baseline.
In the dose escalation study the effect of each injection on blood pressure and QT interval was expressed as a percentage change from the immediately preceding baseline and analyzed by a paired student's t-test. A p-value of less than 0.05 was accepted as statistically significant.

[6] = 250 mg NAC per 5 mL bolus, six seconds
[7] = 500 mg NAC per 5 mL bolus, six seconds
[8] = 5 ml contrast with target dose NAC 11.3 mg/mL, 6 seconds after injection
[9] = target dose NAC 11.3 mg/mL, 18 seconds after injection

Question: Which “area at risk as a percentage of ventricular myocardium” value [1] does the source give for `CC(=O)N[C@@H](CS)C(=O)O` [NAC, N-acetylcysteine] here?
Answer: The value was 18.4±1.8%.

Question: And the “infarct size as a percentage of the area at risk” value [1]?
Answer: The value was 44.7±12.4%.

Question: What about the “infarct size as percent of ventricular myocardium (TTC staining)” value [1] of the same molecule?
Answer: Its value is 8.2±2.3%.

Question: And the “reduction in infarct size” value ([1]; NAC-contrast vs contrast-only)?
Answer: Its value is “approximately 50%”.

Question: What about the “morphologic appearance of the infarcted area” value [2] of the same molecule?
Answer: Its value is “mottled appearance”.

Question: And the “ratio of infarct circumference to infarct area” value ([2]; compared with control animals)?
Answer: The value was “greater”.

Question: And the “nuclei stained positive for apoptosis (TUNEL)” value (myocyte nuclei)?
Answer: The value was 33.0±3.7%.

Question: What about the “nuclei stained TUNEL positive” value (myocyte nuclei) of the same molecule?
Answer: The value was 1.6±1.6%.

Question: What about the “TUNEL positive myocyte nuclei” value (myocyte nuclei; non-ischemic myocardium (non-LAD territories), NAC treated vs control) of the same molecule?
Answer: Its value is “without a significant difference”.

Question: What about the “ventricular arrhythmias during ischemia-reperfusion” value [3] of the same molecule?
Answer: The value was “developed ventricular tachycardia, fibrillation or both”.

Question: And the “reduction of the rise in post procedure creatinine levels” value ([4]; NAC provided during contrast administration vs contrast-only)?
Answer: The value was “about 60%”.

Question: What about the baseline creatinine level [4] of the same molecule?
Answer: The baseline creatinine level was 1.29 ± 0.15 mg/dL.

Question: What about the creatinine level [4] of the same molecule?
Answer: The creatinine level was 1.49 ± 0.06 mg/dL.

Question: What about the “reduction of diastolic blood pressure” value [6] of the same molecule?
Answer: The value was 26%.

Question: What about the “reduction of systolic blood pressure” value [6] of the same molecule?
Answer: Its value is 14%.

Question: And the “time to recovery of diastolic pressures” value (250 mg and 500 mg bolus)?
Answer: The value was 45 to 60 s.

Question: What about the systolic blood pressure (250 mg and 500 mg bolus, after 18 seconds) of the same molecule?
Answer: Its systolic blood pressure is “normalized”.

Question: And the “reduction of diastolic blood pressure” value [7]?
Answer: Its value is 43%.

Question: And the “reduction of systolic blood pressure” value [7]?
Answer: The value was 48%.

Question: What about the “reduction in diastolic blood pressure” value [8] of the same molecule?
Answer: The value was 17%.

Question: And the “reduction of systolic blood pressure” value [8]?
Answer: Its value is 5%.

Question: What about the “time to complete normalization of blood pressure” value (target dose NAC 11.3 mg/mL) of the same molecule?
Answer: The value was 45 to 60 s.

Question: What about the “decrease in diastolic pressure” value [9] of the same molecule?
Answer: The value was “about 7%”.

Question: And the systolic pressure [9]?
Answer: Its systolic pressure is “returned to pre-injection pressures”.

Question: And the QT interval prolongation ([5]; 250 mg NAC bolus, 18 seconds)?
Answer: Its QT interval prolongation is “normalized”.

Question: What about the QT interval prolongation ([5]; 250 mg NAC bolus, immediately after injection) of the same molecule?
Answer: Its QT interval prolongation is 16%.

Question: And the “time to complete recovery of QT interval to baseline” value ([5]; 500 mg NAC bolus)?
Answer: The value was 45 to 60 s.

Question: And the QT interval prolongation ([5]; 500 mg NAC bolus, 18 seconds)?
Answer: Its QT interval prolongation is 9%.

Question: What about the QT interval prolongation ([5]; 500 mg NAC bolus, immediately after injection) of the same molecule?
Answer: Its QT interval prolongation is 35%.

Question: What about the “arrhythmias or changes in heart rate after injections of contrast containing NAC” value ([5]; healthy pigs, intracoronary bolus injections) of the same molecule?
Answer: Its value is “did not cause any arrhythmias or changes in heart rate”.

Question: What about the QT interval prolongation ([5]; target dose 11.3 mg/mL, eighteen seconds after injection) of the same molecule?
Answer: The QT interval prolongation was “significant QT prolongation was no longer present”.

Question: What about the QT interval prolongation ([5]; target dose 11.3 mg/mL, six seconds after injection) of the same molecule?
Answer: Its QT interval prolongation is 10%.

Question: Which “area at risk as a percentage of ventricular myocardium” value [1] does the source give for `C[C@H](O)C(=O)Nc1c(I)c(C(=O)NC(CO)CO)c(I)c(C(=O)NC(CO)CO)c1I` [Iopamidol] here?
Answer: The value was 15.1±4.8%.

Question: What about the “infarct size as a percentage of the area at risk” value [1] of the same molecule?
Answer: The value was 92.4±6.3%.

Question: What about the “infarct size as percent of ventricular myocardium (TTC staining)” value [1] of the same molecule?
Answer: The value was 13.9±4.5%.

Question: What about the “morphologic appearance of the infarcted area” value [2] of the same molecule?
Answer: Its value is “homogeneous with discrete borders”.

Question: And the “nuclei stained positive for apoptosis (TUNEL)” value (myocyte nuclei)?
Answer: The value was 35.8±5.7%.

Question: What about the “nuclei stained TUNEL positive” value (myocyte nuclei) of the same molecule?
Answer: The value was 32.1±4.0%.

Question: And the “ventricular arrhythmias during ischemia-reperfusion” value [3]?
Answer: Its value is “none of the control ischemia-reperfusion animals developed ventricular fibrillation or required DCCV”.

Question: And the “increase in creatinine levels” value ([4]; 200 ml of contrast without periprocedural hydration, 24 h)?
Answer: Its value is 37%.

Question: What about the baseline creatinine level [4] of the same molecule?
Answer: The baseline creatinine level was 1.32 ± 0.26 mg/dL.

Question: And the creatinine level [4]?
Answer: Its creatinine level is 1.82 ± 0.24 mg/dL.

Question: And the “blood pressure effects of control injections” value (contrast only, intracoronary injection)?
Answer: Its value is “did not show such effects”.

Question: And the QT changes ([5]; contrast injections without NAC)?
Answer: The QT changes was “No significant QT changes”.
